Laboratory results published in patent US20210113598A1, “Combination of MIDH1 Inhibitors and DNA Hypomethylating Agents (HMA)” (Deutsches Krebsforschungszentrum (DKFZ) Stiftung des …, priority 2017, published 2021).

Columns and labels:
[1] = test system: IDH1 wildtype AML cells; assay: Clonogenic progenitor (colony formation) assay, IDH1 wildtype AML patient cells; assay type: cell-based, human; details: Compound A1 alone
Description: (§1) Colony-forming cell (CFC) units were assayed in methylcellulose (Methocult H4100; StemCell Technologies Inc.) supplemented with 10 ng/mL IL3, 10 ng/mL GM-CSF, 50 ng/mL SCF, 50 ng/mL FLT3-ligand and 3 U/mL EPO (PeproTech). […] of Compound A1 was added in combination with increasing concentrations of Azacytidine to methylcellulose containing 10exp5 human mononuclear cells and were plated in duplicate. Colonies were evaluated microscopically 10 to 14 days after plating by standard criteria. Graphs was plotted as proportion of colonies relative to vehicle treated cells.

[2] = test system: human IDH1 mutated AML; assay: Transplantation and treatment of mice (PDX model of IDH1 mutated AML); details: for leukemic cells in peripheral blood: monotherapy, week 4 until end of treatment at week 12, Compound A1 150 mg/kg p.o. once daily, azacitidine 1 mg/kg s.c. days 1-5
Description: Leukemic cells from an AML patient with mutated DH1, NPM1, FLT3-TKD and NRAS were xenografted in immunocompromised mice. One million patient-derived AML cells collected from bone marrow and spleen of leukemic mice were injected intravenously in the tail vein of sublethally (3 Gy) irradiated NSG mice. […] The proportion of leukemic cells in peripheral blood of mice was measured with a human-specific CD45 antibody by tail vein bleeds and FACS analysis. The control groups were treated with either vehicle, Compound A1 150 mg/kg once daily p.o. continuously, or azacitidine 1 mg/kg once daily s.c. days 1-5, repeated once after 28 days. The test groups were treated with Compound A1 and azacitidine in the doses mentioned above either starting both drugs on day 1 (parallel group) or starting azacitidine on day 1 but Compound A1 on day 6 (sequential group).

[3] = test system: human IDH1 mutated AML cells; assay: Clonogenic progenitor (colony formation) assay, IDH1 mutated AML patient cells; assay type: cell-based; details: Compound A1 alone
Description: as §1

[4] = test system: human IDH1 mutated AML; details: background statement, oral; cited from earlier work

Row | SMILES | colony formation [1] | leukemia in week 20 ([2]; Compound A1 alone, 8 weeks after stopping the treatment) | leukemic cells in peripheral blood [2] | IC50 [3] | anti-leukemic activity in PDX models of IDH1 mutant AML in vivo [4]
1 | C[C@H]1C[C@@H](n2c(Nc3ccc(OC(F)(F)F)cc3)nc3cc(CCC(=O)O)ccc32)CC(C)(C)C1 [Compound A1, 3-(2-{[4-(trifluoromethoxy)phenyl]amino}-1-[(1R,5R)-3,3,5-trimethylcyclohexyl]-1H-benzimidazol-5-yl)propanoic acid] | not affected | relapsed | declined | 100 nM | strong anti-leukemic activity
2 | Nc1ncn([C@@H]2O[C@H](CO)[C@@H](O)[C@H]2O)c(=O)n1 [azacitidine, 5-azacytidine, reference compound] |  |  | constantly increased |  | 
